One assay has as its target IRAK4 enzyme (Homo sapiens (Human), UniProt Q9NWZ3). The assay is described as follows: biochemical. As to conditions: IRAK4 enzyme, TR-FRET, 500 μM ATP. It is filed as biochemical.
A further assay has as its system TNFα. As to the kind of experiment: cells. The conditions noted are these: Homo sapiens, Monocyte, LPS-stimulated human monocytes, TNFα content; read-out: EC50 TNF. Format: cell-based, human.

Each structure is given as a SMILES string.

IRAK4 enzyme, sequence (Q9NWZ3 whole entry): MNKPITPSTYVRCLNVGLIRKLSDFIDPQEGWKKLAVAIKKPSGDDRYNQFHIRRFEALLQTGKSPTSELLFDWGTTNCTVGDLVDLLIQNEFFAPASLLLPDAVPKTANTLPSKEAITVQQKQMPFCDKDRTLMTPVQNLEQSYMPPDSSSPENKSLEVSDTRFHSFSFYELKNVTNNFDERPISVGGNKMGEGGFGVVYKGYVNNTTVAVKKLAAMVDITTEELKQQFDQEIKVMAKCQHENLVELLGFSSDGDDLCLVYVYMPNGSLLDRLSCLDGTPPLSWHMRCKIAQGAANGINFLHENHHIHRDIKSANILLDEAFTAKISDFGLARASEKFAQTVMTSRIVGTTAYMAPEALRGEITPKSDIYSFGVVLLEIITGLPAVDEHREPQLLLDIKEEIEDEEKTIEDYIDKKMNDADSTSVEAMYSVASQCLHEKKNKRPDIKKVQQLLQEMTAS

In turn, `CC(=O)NC(C)(C)c1ccc(Nc2cc(-c3ccc4cc(C#N)cnn34)ncc2C(=O)NC[C@@H](F)C(C)(C)O)cc1` [Example 215, (R)-4-((4-(2-acetamido-propan-2-yl)phenyl)amino)-6-(3-cyanopyrrolo[1,2-b]pyridazin-7-yl)-N-(2-fluoro-3-hydroxy-3-methylbutyl)nicotinamide] came in with an IC50 on IRAK4 enzyme of 2 nM. Moreover, the EC50 in the assay with TNFα stood at 53 nM.

Turning to `CC(C)(O)[C@H](F)CNC(=O)c1cnc(-c2ccc3cc(C#N)cnn23)cc1Nc1ccc(-c2cnco2)cc1` [Example 216, (R)-6-(3-cyanopyrrolo[1,2-b]pyridazin-7-yl)-N-(2-fluoro-3-hydroxy-3-methylbutyl)-4-((4-(oxazol-5-yl)phenyl)amino) nicotinamide], the IC50 against IRAK4 enzyme is less than 1 nM. Further, the EC50 in the assay with TNFα came out at 32 nM.

Molecule `CC(C)(O)[C@H](F)CNC(=O)c1cnc(-c2ccc3cc(C#N)cnn23)cc1Nc1cncc(OC(F)F)c1` [Example 217, (R)-6-(3-cyanopyrrolo[1,2-b]pyridazin-7-yl)-4-((5-(difluoromethoxy)pyridin-3-yl)amino)-N-(2-fluoro-3-hydroxy-3-methylbutyl)nicotinamide] gave a 50% inhibitory concentration (IC50) against IRAK4 enzyme of less than 1 nM. In addition, the EC50 in the assay with TNFα worked out at 63 nM.

Turning to `Cc1nnc(-c2ccc(Nc3cc(-c4ccc5cc(C#N)cnn45)ncc3C(=O)NC[C@@H](F)C(C)(C)O)cc2)[nH]1` [Example 218, (R)-6-(3-cyanopyrrolo[1,2-b]pyridazin-7-yl)-N-(2-fluoro-3-hydroxy-3-methylbutyl)-4-((4-(5-methyl-4H-1,2,4-triazol-3-yl)phenyl)amino) nicotinamide], the IC50 at IRAK4 enzyme was less than 1 nM. Also, the EC50 in the assay on TNFα came to 41 nM.

Turning to `CC(C)(O)[C@H](F)CNC(=O)c1cnc(-c2ccc3cc(C#N)cnn23)cc1Nc1cccc(-c2cnc[nH]2)c1` [Example 219, (R)-4-((3-(1H-imidazol-5-yl)phenyl)amino)-6-(3-cyanopyrrolo[1,2-b]pyridazin-7-yl)-N-(2-fluoro-3-hydroxy-3-methylbutyl)nicotinamide], half-maximal inhibition against IRAK4 enzyme (IC50) required 1 nM. The EC50 in the assay on TNFα was 209 nM.

At IRAK4 enzyme, `CC(=O)NCc1cccc(Nc2cc(-c3ccc4cc(C#N)cnn34)ncc2C(=O)NC[C@@H](F)C(C)(C)O)c1` [Example 220, (R)-4-((3-(acetamidomethyl)phenyl)amino)-6-(3-cyanopyrrolo[1,2-b]pyridazin-7-yl)-N-(2-fluoro-3-hydroxy-3-methylbutyl)nicotinamide] gave an IC50 of 1 nM. For the same molecule, in the assay on TNFα, the EC50 is 123 nM.

Regarding `CC(C)(O)[C@H](F)CNC(=O)c1cnc(-c2ccc3cc(C#N)cnn23)cc1Nc1cccc(-c2ncc[nH]2)c1` [Example 221, (R)-4-((3-(1H-imidazol-2-yl)phenyl)amino)-6-(3-cyanopyrrolo[1,2-b]pyridazin-7-yl)-N-(2-fluoro-3-hydroxy-3-methylbutyl)nicotinamide], on IRAK4 enzyme, the IC50 is less than 1 nM. The EC50 with TNFα turned out to be 98 nM.

For the molecule `CC(C)(O)[C@H](F)CNC(=O)c1cnc(-c2ccc3cc(C#N)cnn23)cc1Nc1cncc(C2CC2)c1` [Example 222, (R)-6-(3-cyanopyrrolo[1,2-b]pyridazin-7-yl)-4-((5-cyclopropylpyridin-3-yl)amino)-N-(2-fluoro-3-hydroxy-3-methylbutyl)nicotinamide], on IRAK4 enzyme, the IC50 stood at 1 nM. In addition, in the assay on TNFα, the EC50 came out at 151 nM.

In turn, `CC(C)(O)[C@H](F)CNC(=O)c1cnc(-c2ccc3cc(C#N)cnn23)cc1Nc1cnn([C@H]2CCNC2)c1` [Example 223, 6-(3-cyanopyrrolo[1,2-b]pyridazin-7-yl)-N-((R)-2-fluoro-3-hydroxy-3-methylbutyl)-4-((1-((S)-pyrrolidin-3-yl)-1H-pyrazol-4-yl)amino) nicotinamide] gave an IC50 on IRAK4 enzyme of less than 1 nM. The EC50 in the assay on TNFα stood at 13 nM.

`COC(=O)N1CC[C@H](n2cc(Nc3cc(-c4ccc5cc(C#N)cnn45)ncc3C(=O)NC[C@@H](F)C(C)(C)O)cn2)C1` [Example 224, (S)-methyl 3-(4-((2-(3-cyanopyrrolo[1,2-b]pyridazin-7-yl)-5-(((R)-2-fluoro-3-hydroxy-3-methylbutyl)carbamoyl)pyridin-4-yl)amino)-1H-pyrazol-1-yl) pyrrolidine-1-carboxylate] came in with a half-inhibitory concentration (IC50) against IRAK4 enzyme of 1 nM. Besides, the EC50 in the assay on TNFα turned out to be 75 nM.

`COC(=O)NCc1ccc(Nc2cc(-c3ccc4cc(C#N)cnn34)ncc2C(=O)NC[C@@H](F)C(C)(C)O)cc1` [Example 225, (R)-methyl (4-((2-(3-cyano-pyrrolo[1,2-b]pyridazin-7-yl)-5-((2-fluoro-3-hydroxy-3-methylbutyl)carbamoyl)pyridin-4-yl)amino)benzyl)carbamate] gave an IC50 against IRAK4 enzyme of less than 1 nM. Further, in the assay on TNFα, the EC50 was found to be 6 nM.

In turn, `CC(C)(O)[C@H](F)CNC(=O)c1cnc(-c2ccc3cc(C#N)cnn23)cc1Nc1cncc(C(F)F)c1` [Example 226, (R)-6-(3-cyanopyrrolo[1,2-b]pyridazin-7-yl)-4-((5-(difluoromethyl)pyridin-3-yl)amino)-N-(2-fluoro-3-hydroxy-3-methylbutyl)nicotinamide] returned an IC50 on IRAK4 enzyme of less than 1 nM. For the same molecule, the EC50 with TNFα was found to be 75 nM.

In the case of `CC(C)(O)[C@H](F)CNC(=O)c1cnc(-c2ccc3cc(C#N)cnn23)cc1Nc1ccc(C(F)F)nc1` [Example 227, (R)-6-(3-cyanopyrrolo[1,2-b]pyridazin-7-yl)-4-((6-(difluoromethyl)pyridin-3-yl)amino)-N-(2-fluoro-3-hydroxy-3-methylbutyl)nicotinamide], the IC50 against IRAK4 enzyme was less than 1 nM. Moreover, the EC50 in the assay with TNFα came out at 31 nM.

As to `CC(C)(O)[C@H](F)CNC(=O)c1cnc(-c2ccc3cc(C#N)cnn23)cc1Nc1ccc(-c2ncco2)cc1` [Example 228, (R)-6-(3-cyanopyrrolo[1,2-b]pyridazin-7-yl)-N-(2-fluoro-3-hydroxy-3-methylbutyl)-4-((4-(oxazol-2-yl)phenyl)amino) nicotinamide], the IC50 at IRAK4 enzyme turned out to be 2 nM. Moreover, in the assay on TNFα, the concentration giving a half-maximal response (EC50) stood at 114 nM.

In turn, `CC(C)(O)[C@H](F)CNC(=O)c1cnc(-c2ccc3cc(C#N)cnn23)cc1Nc1cccnc1F` [Example 229, (R)-6-(3-cyanopyrrolo[1,2-b]pyridazin-7-yl)-N-(2-fluoro-3-hydroxy-3-methylbutyl)-4-((2-fluoropyridin-3-yl)amino)nicotinamide] came in with an IC50 on IRAK4 enzyme of 1 nM. Also, the EC50 in the assay with TNFα came to 135 nM.

In turn, `CC(C)(O)[C@H](F)CNC(=O)c1cnc(-c2ccc3cc(C#N)cnn23)cc1Nc1ccc(-c2ncc[nH]2)cc1` [Example 230, (R)-4-((4-(1H-imidazol-2-yl)phenyl)amino)-6-(3-cyanopyrrolo[1,2-b]pyridazin-7-yl)-N-(2-fluoro-3-hydroxy-3-methylbutyl)nicotinamide] returned an IC50 on IRAK4 enzyme of less than 1 nM. Also, the EC50 with TNFα amounted to 58 nM.

Turning to `COC(=O)N1CC(n2cc(Nc3cc(-c4ccc5cc(C#N)cnn45)ncc3C(=O)NC[C@@H](F)C(C)(C)O)cn2)C1` [Example 231, (R)-methyl 3-(4-((2-(3-cyanopyrrolo[1,2-b]pyridazin-7-yl)-5-((2-fluoro-3-hydroxy-3-methylbutyl)carbamoyl)pyridin-4-yl)amino)-1H-pyrazol-1-yl)azetidine-1-carboxylate], the IC50 on IRAK4 enzyme was less than 1 nM. The EC50 with TNFα is 61 nM.

For the origin of these results see patent publication US10336762B2 (priority 2017, dated 2019).
